Measurements published in patent US10485772B2, “Compositions for modulating cancer stem cells and uses therefor” (University of Canberra, priority 2014, dated 2019).

What was measured:
[1] = test system: MCF-7 cells (mammospheres); assay: Mammosphere assay in MCF-IM model; format: cell-based, human; conditions: bisindolylmaleimide-I 1 μM for 1 hr prior to PMA for 6 days
Description: The following mammosphere culture media components were purchased from StemCell Technologies Inc., BC, Canada: Mammocult Basal medium (Human) (catalogue number-05621), Mammocult Proliferation Supplements (Human) (catalogue number-05622), heparin (catalogue number-07904) and hydrocortisone (catalogue number-[…]). Hydrocortisone powder was freshly dissolved into mammocult basal medium to get 10^−4M solution on the day of experiment. 50 mL of
Mammocult complete media was then prepared by addition of 45 mL Mammocult basal medium, 5 mL mammocult proliferation supplements, 100 μL of the 0.2% heparin stock, 500 μL of 10^−4M stock of hydrocortisone and 50 μL of the PNS. Mammocult complete media was either used on same day or stored for not more than 7 days at 4° C.
MCF-7 cells were grown in a 175 cm^2 cell culture flask and harvested using a cell scraper (Zellschaber, Switzerland) or FACS sorted as specified below. Importantly trypsin treatment was never used for harvesting cells as it interferes with the mammosphere assay. Harvested cells were then re-suspended in 1 mL mammocult complete media and centrifuged at 500×g for 3 minutes at 20° C. The cell pellet was then re-suspended in 1 mL mammocult complete media before counting the cells on the Vi-CELL counter. Cell dilutions were then prepared to stain 40,000 cells/2 mL and 2 mL of cells were seeded in the 6 well-ultra low adherent, flat bottom plates (Costar, Corning Inc, Corning, N.Y., USA). Cells were either stimulated or not treated according to the experimental protocol and incubated at 37° C., under 5% CO2 for 7 days in a Hepa-Filtered Infrared (IR) Incubator (Forma Scientific Inc., Materietta, Ohio). Mammospheres larger than 60 μm were counted per well on day 7 and pictures were taken with an Olympus microscope. All the mammosphere assays were performed in duplicate wells and the entire procedure was repeated at least twice.
Mammosphere culture media components were purchased from StemCell Technologies and mammosphere assays were performed as recommended by the manufacturer's guidelines. Briefly, 40,000 cells/2 ml cell dilutions were then prepared and 2 ml of cells were seeded in the 6 well-ultralow adherent, flat bottom plates (Costar). Mammospheres larger than 60 μm were counted per well on day 7 and pictures were taken.

[2] = test system: PKC-θ chromatin association at CSC inducible gene promoters (uPAR, CD44); assay: ChIP assay with anti-PKC-θ antibodies in MCF-IM model; format: cell-based, human
Description: Between 1-5×10^6 Cells were harvested following various treatments according to the experimental requirement and re-suspended in 10 mL DMEM completer media at room temperature after counting then at Vi-CELL counter. Cells were then cross linked with freshly prepared 1% paraformaldehyde (PFA) (Analytical UNIVAR, Seattle, Wash.) for 10 minutes at room temperature with continuous but slow rotations on rotary wheel. Next, the reaction was quenched by the addition of 2M glycine solution (AnalaR, Merck, Darmstadt, Germany) to a get a final concentration of 125 mM and mixed further for 10 minutes at room temperature on the rotary wheel. Cells were then washed three times with 10 mL ice cold PBS and the cell pellet was either snap frozen on dry ice or used immediately afterwards. SDS Lysis Buffer (Upstate Biotechnology, Billerica, Mass.) was prepared by addition of 1× complete protease inhibitor solution (1 tablet dissolved in 1 mL DEPC water) (Roche Diagnostics, Mannheim, Germany) and cell pellet was then re-suspended in 250 μL of the in the SDS lysis buffer for 10 minutes at room temperature. Cells were sonicated (10 sec pulses for 2 minutes on 1 liter ice cold water mixed with ice, 70% maximum output) to shear the chromatin to obtain an average DNA fragment size of 250-500 bp using a Cole Palmer Ultrasonic processor (Cole Plamer, Vernon Hills, Ill.). […]

**Q.** What does the source list for `CN(C)CCCn1cc(C2=C(c3c[nH]c4ccccc34)C(=O)NC2=O)c2ccccc21` [bisindolylmaleimide-I]?
**A.** mammosphere formation [1]: reduce mammosphere formation; mammosphere formation ([1]; listed as Broad spectrum PKC pathway inhibitor): inhibition of EMT and CSC formation; PKC-θ chromatin association across the uPAR promoter (ChIP) ([2]; MCF-IM model, bisindolylmaleimide-I 1 μM for 1 hr, then PMA for 60 hours): reduces its chromatin association across the uPAR promoter; binding of PKC-θ on the CD44 gene promoter (ChIP) ([2]; as worded in Example 13): reduction of binding of PKC-θ on the CD44 gene promoter
